As a reminder, the IC90 is the point of the concentration-response curve where the effect stands at 90%.

Molecules are shown by their SMILES. Where a name gives a salt, the structure may show the parent alone.

The test concerns Acinetobacter baumannii ATCC17961. Briefly: Antimicrobial susceptibility testing: 90% growth inhibitory concentration (IC90) determination. It is filed as cell-based. To be noted: Acinetobacter baumannii, ATCC17961, 16 h, 90% growth inhibitory concentration against Acinetobacter baumannii ATCC17961, Iso-Sensitest broth, OD 600 nm over 16 h; read-out: ATCC 17961 IC90. The protocol: The in vitro antimicrobial activity of the compounds was determined according to the following procedure: The assay used a 10-points Iso-Sensitest broth medium to measure quantitatively the in vitro activity of the compounds against Acinetobacter baumannii ATCC17961. Stock compounds in DMSO were serially twofold diluted (e.g. range from 10 to 0.0195 μM final concentration) in 384 wells microtiter plates and inoculated with 49 μL the bacterial suspension in Iso-Sensitest medium to have a final cell concentration of ˜5×10^(5) CFU/mL in a final volume/well of 50 μL/well. Microtiter plates were incubated at 35±2° C. Bacterial cell growth was determined with the measurement of optical density at λ=600 nm each min over a time course of 16 h. Growth inhibition was calculated during the logarithmic growth of the bacterial cells with determination of the concentration inhibiting 50% (IC50) and 90% (IC90) of the growth. Table 1 provides the 90% growth inhibitory concentrations (IC90) in micromoles per liter of the compounds of present invention obtained against the strain Acinetobacter baumannii ATCC17961.
`Cn1c(-c2cn(-c3ccc(NCCN(CCN)CCN)cn3)nc2C(F)(F)F)cnc1C(=O)Nc1ccc(C(=O)N2CCN(C(=O)C3CC[N+](CC(=O)O)(CC4CNC4)CC3)CC2)c(Cl)c1` (stereo not drawn) [Example 166, cis-2-[1-(azetidin-3-ylmethyl)-4-[4-[4-[[5-[1-[5-[2-[bis(2-aminoethyl)amino]ethylamino]-2-pyridyl]-3-(trifluoromethyl)pyrazol-4-yl]-1-methyl-imidazole-2-carbonyl]amino]-2-chloro-benzoyl]piperazine-1-carbonyl]piperidin-1-ium-1-yl]acetic acid;formic acid;formate]: the IC90 is 152 nM.

Take `Cn1c(-c2cn(-c3ccc(N)cn3)nc2C(F)(F)F)cnc1C(=O)Nc1ccc(C(=O)N2CCN(C(=O)CCCN(CCCN)CC(=O)O)CC2)c(Cl)c1` [Example 72, 2-[3-aminopropyl-[4-[4-[4-[[5-[1-(5-amino-2-pyridyl)-3-(trifluoromethyl)pyrazol-4-yl]-1-methyl-imidazole-2-carbonyl]amino]-2-chloro-benzoyl]piperazino]-4-keto-butyl]amino]acetic acid. 1:1 2,2,2-trifluoroacetic acid]: the IC90 amounted to 870 nM.

Turning to `CC(C)Nc1ccc(-n2cc(-c3cnc(C(=O)Nc4ccc(C(=O)N5CCN(C(=O)C6CC[N+](CC(=O)O)(CC7CNC7)CC6)CC5)c(Cl)c4)n3C)c(C(F)(F)F)n2)nc1` (stereo not drawn) [Example 40, 2-[1-(azetidin-3-ylmethyl)-4-[4-[2-chloro-4-[[5-[1-[5-(isopropylamino)-2-pyridyl]-3-(trifluoromethyl)pyrazol-4-yl]-1-methyl-imidazole-2-carbonyl]amino]benzoyl]piperazine-1-carbonyl]piperidin-1-ium-1-yl]acetic acid. 1:1 formate], the IC90 stood at 430 nM.

For `Cn1c(-c2cn(-c3cc4[nH]c(C(=O)N5CCO[C@]6(CCOC6)C5)cc4cn3)nc2C(F)(F)F)cnc1C(=O)Nc1ccc(C(=O)N2CCN(C(=O)[C@H]3CC[N@+](CC(=O)O)(CC4CNC4)CC3)CC2)c(Cl)c1` [Example 121, cis-2-[1-(azetidin-3-ylmethyl)-4-[4-[2-chloro-4-[[5-[1-[2-[(5R)-2,6-dioxa-9-azaspiro[4.5]decane-9-carbonyl]-1H-pyrrolo[3,2-c]pyridin-6-yl]-3-(trifluoromethyl)pyrazol-4-yl]-1-methyl-imidazole-2-carbonyl]amino]benzoyl]piperazine-1-carbonyl]piperidin-1-ium-1-yl]acetic acid. 1:1 2,2,2-trifluoroacetate], the IC90 was determined as 375 nM.

Take `Cn1c(-c2cn(-c3ccc(N)cc3F)nc2C(F)(F)F)cnc1C(=O)Nc1ccc(C(=O)N2CCN(C(=O)CCC[N+](C)(CC(=O)[O-])CC3CNC3)CC2)c(Cl)c1` (stereo not drawn) [Example 195, 2-[[4-[4-[4-[[5-[1-(4-amino-2-fluoro-phenyl)-3-(trifluoromethyl)pyrazol-4-yl]-1-methyl-imidazole-2-carbonyl]amino]-2-chloro-benzoyl]piperazin-1-yl]-4-oxo-butyl]-(azetidin-3-ylmethyl)-methyl-ammonio]acetate]: the IC90 came out at 330 nM.

`Cn1c(-c2cn(-c3ccc(N)cn3)nc2C(F)(F)F)cnc1C(=O)Nc1ccc(C(=O)N2CCN(C(=O)[C@@H](N)CCCCNCC(=O)O)CC2)c(Cl)c1` [Example 81, 2-[[(5S)-amino-6-[4-[4-[[5-[1-(5-amino-2-pyridyl)-3-(trifluoromethyl)pyrazol-4-yl]-1-methyl-imidazole-2-carbonyl]amino]-2-chloro-benzoyl]piperazino]-6-keto-hexyl]amino]acetic acid. 1:1 2,2,2-trifluoroacetic acid]: the IC90 turned out to be 1210 nM.

`Cn1c(-c2cn(-c3ccc(N4CCOCC4)cc3F)nc2C(F)(F)F)cnc1C(=O)Nc1ccc(C(=O)N2CCN(C(=O)[C@H]3CC[N@@+](CCCN)(CC(=O)O)CC3)CC2)c(Cl)c1` [Example 100, cis-2-[1-(3-aminopropyl)-4-[4-[2-chloro-4-[[5-[1-(2-fluoro-4-morpholino-phenyl)-3-(trifluoromethyl)pyrazol-4-yl]-1-methyl-imidazole-2-carbonyl]amino]benzoyl]piperazine-1-carbonyl]piperidin-1-ium-1-yl]acetic acid;formate]: the 90% effect concentration (IC90) came out at 195 nM.

On to `Cn1c(-c2cn(-c3ccc4[nH]c(C(CO)CO)cc4n3)nc2C(F)(F)F)cnc1C(=O)Nc1ccc(C(=O)N2CCN(C(=O)[C@H]3CC[N@@+](CCCN)(CC(=O)O)CC3)CC2)c(Cl)c1` [Example 102, cis-2-[1-(3-aminopropyl)-4-[4-[2-chloro-4-[[5-[1-[2-[2-hydroxy-1-(hydroxymethyl)ethyl]-1H-pyrrolo[3,2-b]pyridin-5-yl]-3-(trifluoromethyl)pyrazol-4-yl]-1-methyl-imidazole-2-carbonyl]amino]benzoyl]piperazine-1-carbonyl]piperidin-1-ium-1-yl]acetic acid;formate], for which the IC90 worked out at 445 nM.

`Cn1c(-c2cn(-c3ccc(NCC4(N)CCCC4)cn3)nc2C(F)(F)F)cnc1C(=O)Nc1ccc(C(=O)N2CCN(C(=O)C3CC[N+](CC(=O)O)(CC4CNC4)CC3)CC2)c(Cl)c1` (stereo not drawn) [Example 24, 2-[4-[4-[4-[[5-[1-[5-[(1-aminocyclopentyl)methylamino]-2-pyridyl]-3-(trifluoromethyl)pyrazol-4-yl]-1-methyl-imindazole-2-carbonyl]amino]-2-chloro-benzoyl]piperazine-1-carbonyl]-1-(azetidin-3-ylmethyl)piperidin-1-ium-1-yl]acetic acid. 1:1 2,2,2-trifluoroacetic acid. 1:1 2,2,2-trifluoroacetate]: the IC90 turned out to be 350 nM.

Regarding `CNc1ccc(-n2cc(-c3cnc(C(=O)Nc4ccc(C(=O)N5CCN(C(=O)[C@H]6CC[N@+](CC(=O)O)(CC7CNC7)CC6)CC5)c(Cl)c4)n3C)c(C(F)(F)F)n2)c(F)c1` [Example 176, cis-2-[1-(azetidin-3-ylmethyl)-4-[4-[2-chloro-4-[[5-[1-[2-fluoro-4-(methylamino)phenyl]-3-(trifluoromethyl)pyrazol-4-yl]-1-methyl-imidazole-2-carbonyl]amino]benzoyl]piperazine-1-carbonyl]piperidin-1-ium-1-yl]acetic acid. 1:1 formate], the IC90 worked out at 88.1 nM.

With `Cn1c(-c2cn(-c3ccc(NC[C@H]4COCCN4)cn3)nc2C(F)(F)F)cnc1C(=O)Nc1ccc(C(=O)N2CCN(C(=O)C3CC[N+](CC(=O)O)(CC4CNC4)CC3)CC2)c(Cl)c1` (stereo partly drawn) [Example 47, 2-[1-(azetidin-3-ylmethyl)-4-[4-[2-chloro-4-[[1-methyl-5-[1-[5-[[(3S)-morpholin-3-yl]methylamino]-2-pyridyl]-3-(trifluoromethyl)pyrazol-4-yl]imidazole-2-carbonyl]amino]benzoyl]piperazine-1-carbonyl]piperidin-1-ium-1-yl]acetic acid. 1:1 2,2,2-trifluoroacetic acid. 1:1 2,2,2-trifluoroacetate], the IC90 worked out at 500 nM.

Regarding `Cn1c(-c2cn(-c3ccc(NCC4CC4(F)F)cn3)nc2C(F)(F)F)cnc1C(=O)Nc1ccc(C(=O)N2CCN(C(=O)C3CC[N+](CC(=O)O)(CC4CNC4)CC3)CC2)c(Cl)c1` (stereo not drawn) [Example 6, 2-[1-(azetidin-3-ylmethyl)-4-[4-[2-chloro-4-[[5-[1-[5-[(2,2-difluorocyclopropyl)methylamino]-2-pyridyl]-3-(trifluoromethyl)pyrazol-4-yl]-1-methyl-imidazole-2-carbonyl]amino]benzoyl]piperazine-1-carbonyl]piperidin-1-ium-1-yl]acetic acid. 1:1 2,2,2-trifluoroacetate], the IC90 amounted to 690 nM.

The values are drawn from patent US20250179066A1, “ZWITTERIONIC ANTIBACTERIAL COMPOUNDS” (Hoffmann-La Roche Inc., priority 2022, published 2025).
